Laboratory results: US11331369B2, “Endoparasitic depsipeptides” (Zoetis Services LLC, priority 2017, dated 2022)

Assays:
[1] = tested on: 4th stage larvae (L4) of Dirofilaria immitis; assay: Dirofilaria immitis, L4 Stage (DiL4) In Vitro Assay; format: cell-based; conditions: Dirofilaria immitis, 72 h, read-out: DiL4 Minimum Effective Dose (MED), approximately 72 hours incubation; L4 larvae assessed for survival or paralysis
[2] = tested on: third stage larvae of Haemonchus contortus; assay: Haemonchus contortus L3 (HcL3) Assay; format: cell-based; conditions: 96 h, read-out: HcL3 Minimum Effective Dose (MED)

## CC(C)C[C@H]1C(=O)O[C@H](Cc2ccc(Cn3nc(C#N)cc3C#N)cc2)C(=O)N(C)[C@@H](CC(C)C)C(=O)O[C@H](C)C(=O)N(C)[C@@H](CC(C)C)C(=O)O[C@H](Cc2ccc(Cn3nc(C#N)cc3C#N)cc2)C(=O)N(C)[C@@H](CC(C)C)C(=O)O[C@H](C)C(=O)N1C [Example 1b-66, 1,1′-(((((2R,5S,8R,11S,14R,17S,20R,23S)-5,11,17,23-tetraisobutyl-4,8,10,16,20,22-hexamethyl-3,6,9,12,15,18,21,24-octaoxo-1,7,13,19-tetraoxa-4,10,16,22-tetraazacyclotetracosane-2,14-diyl)bis(methylene))bis(4,1-phenylene))bis(methylene))bis(1H-pyrazole-3,5-dicarbonitrile)]
[1]
  minimal effective concentration: ≤ 0.0001 µM
[2]
  minimal effective concentration: ≤ 1 µM

## CC(C)C[C@H]1C(=O)O[C@H](Cc2ccc(Cn3cc(-c4ccncn4)cn3)cc2)C(=O)N(C)[C@@H](CC(C)C)C(=O)O[C@H](C)C(=O)N(C)[C@@H](CC(C)C)C(=O)O[C@H](Cc2ccc(Cn3cc(-c4ccncn4)cn3)cc2)C(=O)N(C)[C@@H](CC(C)C)C(=O)O[C@H](C)C(=O)N1C [Example 1b-86, (3S,6R,9S,12R,15S,18R,21S,24R)-3,9,15,21-tetraisobutyl-4,6,10,16,18,22-hexamethyl-12,24-bis(4-((4-(pyrimidin-4-yl)-1H-pyrazol-1-yl)methyl)benzyl)-1,7,13,19-tetraoxa-4,10,16,22-tetraazacyclotetracosan-2,5,8,11,14,17,20,23-octaone]
[1]
  minimal effective concentration: 0.0001 to 0.001 µM
[2]
  minimal effective concentration: 10 to 100 µM

## CC(C)C[C@H]1C(=O)O[C@H](Cc2ccc(Cn3ccc(Cl)n3)cc2)C(=O)N(C)[C@@H](CC(C)C)C(=O)O[C@H](C)C(=O)N(C)[C@@H](CC(C)C)C(=O)O[C@H](Cc2ccc(Cn3ccc(Cl)n3)cc2)C(=O)N(C)[C@@H](CC(C)C)C(=O)O[C@H](C)C(=O)N1C [Example 1b-96, (3S,6R,9S,12R,15S,18R,21S,24R)-6,18-bis(4-((3-chloro-1H-pyrazol-1-yl)methyl)benzyl)-3,9,15,21-tetraisobutyl-4,10,12,16,22,24-hexamethyl-1,7,13,19-tetraoxa-4,10,16,22-tetraazacyclotetracosan-2,5,8,11,14,17,20,23-octaone]
[1]
  minimal effective concentration: ≤ 0.0001 µM
[2]
  minimal effective concentration: ≤ 1 µM

## CCOc1ccn(Cc2ccc(C[C@H]3OC(=O)[C@H](CC(C)C)N(C)C(=O)[C@@H](C)OC(=O)[C@H](CC(C)C)N(C)C(=O)[C@@H](Cc4ccc(Cn5ccc(OCC)n5)cc4)OC(=O)[C@H](CC(C)C)N(C)C(=O)[C@@H](C)OC(=O)[C@H](CC(C)C)N(C)C3=O)cc2)n1 [Example 1b-104, (3S,6R,9S,12R,15S,18R,21S,24R)-6,18-bis(4-((3-ethoxy-1H-pyrazol-1-yl)methyl)benzyl)-3,9,15,21-tetraisobutyl-4,10,12,16,22,24-hexamethyl-1,7,13,19-tetraoxa-4,10,16,22-tetraazacyclotetracosan-2,5,8,11,14,17,20,23-octaone]
[1]
  minimal effective concentration: 0.0001 to 0.001 µM
[2]
  minimal effective concentration: ≤ 1 µM

## COc1ccn(Cc2ccc(C[C@H]3OC(=O)[C@H](CC(C)C)N(C)C(=O)[C@@H](C)OC(=O)[C@H](CC(C)C)N(C)C(=O)[C@@H](Cc4ccc(Cn5ccc(OC)n5)cc4)OC(=O)[C@H](CC(C)C)N(C)C(=O)[C@@H](C)OC(=O)[C@H](CC(C)C)N(C)C3=O)cc2)n1 [Example 1b-115, (3S,6R,9S,12R,15S,18R,21S,24R)-3,9,15,21-tetraisobutyl-6,18-bis(4-((3-methoxy-1H-pyrazol-1-yl)methyl)benzyl)-4,10,12,16,22,24-hexamethyl-1,7,13,19-tetraoxa-4,10,16,22-tetraazacyclotetracosan-2,5,8,11,14,17,20,23-octaone]
[1]
  minimal effective concentration: ≤ 0.0001 µM
[2]
  minimal effective concentration: ≤ 1 µM

## Cc1ccnn1Cc1ccc(C[C@H]2OC(=O)[C@H](CC(C)C)N(C)C(=O)[C@@H](C)OC(=O)[C@H](CC(C)C)N(C)C(=O)[C@@H](Cc3ccc(Cn4nccc4C)cc3)OC(=O)[C@H](CC(C)C)N(C)C(=O)[C@@H](C)OC(=O)[C@H](CC(C)C)N(C)C2=O)cc1 [Example 1b-160, (3S,6R,9S,12R,15S,18R,21S,24R)-3,9,15,21-tetraisobutyl-4,6,10,16,18,22-hexamethyl-12,24-bis(4-((5-methyl-1H-pyrazol-1-yl)methyl)benzyl)-1,7,13,19-tetraoxa-4,10,16,22-tetraazacyclotetracosan-2,5,8,11,14,17,20,23-octaone]
[1]
  minimal effective concentration: 0.0001 to 0.001 µM
[2]
  minimal effective concentration: ≤ 1 µM

## COCc1ccnn1Cc1ccc(C[C@H]2OC(=O)[C@H](CC(C)C)N(C)C(=O)[C@@H](C)OC(=O)[C@H](CC(C)C)N(C)C(=O)[C@@H](Cc3ccc(Cn4nccc4COC)cc3)OC(=O)[C@H](CC(C)C)N(C)C(=O)[C@@H](C)OC(=O)[C@H](CC(C)C)N(C)C2=O)cc1 [Example 1b-166, (3S,6R,9S,12R,15S,18R,21S,24R)-3,9,15,21-tetraisobutyl-6,18-bis(4-((5-(methoxymethyl)-1H-pyrazol-1-yl)methyl)benzyl)-4,10,12,16,22,24-hexamethyl-1,7,13,19-tetraoxa-4,10,16,22-tetraazacyclotetracosan-2,5,8,11,14,17,20,23-octaone]
[1]
  minimal effective concentration: ≤ 0.0001 µM
[2]
  minimal effective concentration: 1 to 10 µM

## CCOc1cnn(C(C)(C)c2ccc(C[C@H]3OC(=O)[C@H](CC(C)C)N(C)C(=O)[C@@H](C)OC(=O)[C@H](CC(C)C)N(C)C(=O)[C@@H](Cc4ccc(C(C)(C)n5cc(OCC)cn5)cc4)OC(=O)[C@H](CC(C)C)N(C)C(=O)[C@@H](C)OC(=O)[C@H](CC(C)C)N(C)C3=O)cc2)c1 [Example 1b-171, (3S,6R,9S,12R,15S,18R,21S,24R)-6,18-bis(4-(2-(4-ethoxy-1H-pyrazol-1-yl)propan-2-yl)benzyl)-3,9,15,21-tetraisobutyl-4,10,12,16,22,24-hexamethyl-1,7,13,19-tetraoxa-4,10,16,22-tetraazacyclotetracosan-2,5,8,11,14,17,20,23-octaone]
[1]
  minimal effective concentration: ≤ 0.0001 µM
[2]
  minimal effective concentration: ≤ 1 µM

## CC(C)C[C@H]1C(=O)O[C@H](Cc2ccc(Cn3nccc3-c3ccccn3)cc2)C(=O)N(C)[C@@H](CC(C)C)C(=O)O[C@H](C)C(=O)N(C)[C@@H](CC(C)C)C(=O)O[C@H](Cc2ccc(Cn3nccc3-c3ccccn3)cc2)C(=O)N(C)[C@@H](CC(C)C)C(=O)O[C@H](C)C(=O)N1C [Example 1b-173, (3S,6R,9S,12R,15S,18R,21S,24R)-3,9,15,21-tetraisobutyl-4,6,10,16,18,22-hexamethyl-12,24-bis(4-((5-(pyridin-2-yl)-1H-pyrazol-1-yl)methyl)benzyl)-1,7,13,19-tetraoxa-4,10,16,22-tetraazacyclotetracosan-2,5,8,11,14,17,20,23-octaone]
[1]
  minimal effective concentration: 0.0001 to 0.001 µM
[2]
  minimal effective concentration: ≤ 1 µM

## CCOCc1ccnn1Cc1ccc(C[C@H]2OC(=O)[C@H](CC(C)C)N(C)C(=O)[C@@H](C)OC(=O)[C@H](CC(C)C)N(C)C(=O)[C@@H](Cc3ccc(Cn4nccc4COCC)cc3)OC(=O)[C@H](CC(C)C)N(C)C(=O)[C@@H](C)OC(=O)[C@H](CC(C)C)N(C)C2=O)cc1 [Example 1b-176, (3S,6R,9S,12R,15S,18R,21S,24R)-6,18-bis(4-((5-(ethoxymethyl)-1H-pyrazol-1-yl)methyl)benzyl)-3,9,15,21-tetraisobutyl-4,10,12,16,22,24-hexamethyl-1,7,13,19-tetraoxa-4,10,16,22-tetraazacyclotetracosan-2,5,8,11,14,17,20,23-octaone]
[1]
  minimal effective concentration: ≤ 0.0001 µM
[2]
  minimal effective concentration: ≤ 1 µM

## Cc1cccc(-c2ccnn2Cc2ccc(C[C@H]3OC(=O)[C@H](CC(C)C)N(C)C(=O)[C@@H](C)OC(=O)[C@H](CC(C)C)N(C)C(=O)[C@@H](Cc4ccc(Cn5nccc5-c5cccc(C)n5)cc4)OC(=O)[C@H](CC(C)C)N(C)C(=O)[C@@H](C)OC(=O)[C@H](CC(C)C)N(C)C3=O)cc2)n1 [Example 1b-177, (3S,6R,9S,12R,15S,18R,21S,24R)-3,9,15,21-tetraisobutyl-4,6,10,16,18,22-hexamethyl-12,24-bis(4-((5-(6-methylpyridin-2-yl)-1H-pyrazol-1-yl)methyl)benzyl)-1,7,13,19-tetraoxa-4,10,16,22-tetraazacyclotetracosan-2,5,8,11,14,17,20,23-octaone]
[1]
  minimal effective concentration: ≤ 0.0001 µM
[2]
  minimal effective concentration: ≤ 1 µM

## CC(C)C[C@H]1C(=O)O[C@H](Cc2ccc(Cn3nccc3-c3ccc(F)cn3)cc2)C(=O)N(C)[C@@H](CC(C)C)C(=O)O[C@H](C)C(=O)N(C)[C@@H](CC(C)C)C(=O)O[C@H](Cc2ccc(Cn3nccc3-c3ccc(F)cn3)cc2)C(=O)N(C)[C@@H](CC(C)C)C(=O)O[C@H](C)C(=O)N1C [Example 1b-189, (3S,6R,9S,12R,15S,18R,21S,24R)-6,18-bis(4-((5-(5-fluoropyridin-2-yl)-1H-pyrazol-1-yl)methyl)benzyl)-3,9,15,21-tetraisobutyl-4,10,12,16,22,24-hexamethyl-1,7,13,19-tetraoxa-4,10,16,22-tetraazacyclotetracosan-2,5,8,11,14,17,20,23-octaone]
[1]
  minimal effective concentration: 0.0001 to 0.001 µM
[2]
  minimal effective concentration: 10 to 100 µM

## CC(C)C[C@H]1C(=O)O[C@H](Cc2ccc(Cn3nccc3-c3cnccn3)cc2)C(=O)N(C)[C@@H](CC(C)C)C(=O)O[C@H](C)C(=O)N(C)[C@@H](CC(C)C)C(=O)O[C@H](Cc2ccc(Cn3nccc3-c3cnccn3)cc2)C(=O)N(C)[C@@H](CC(C)C)C(=O)O[C@H](C)C(=O)N1C [Example 1b-208, (3S,6R,9S,12R,15S,18R,21S,24R)-3,9,15,21-tetraisobutyl-4,6,10,16,18,22-hexamethyl-12,24-bis(4-((5-(pyrazin-2-yl)-1H-pyrazol-1-yl)methyl)benzyl)-1,7,13,19-tetraoxa-4,10,16,22-tetraazacyclotetracosan-2,5,8,11,14,17,20,23-octaone]
[1]
  minimal effective concentration: 0.001 to 0.01 µM
[2]
  minimal effective concentration: 10 to 100 µM
